From patent US20140187771A1, “AMORPHOUS SOLID SALTS” (Gilead Sciences, Inc., priority 2011, published 2014)

Columns and labels:
[1] = Hygroscopicity at room temperature (weight gain and visual phase transition after 24 hours at controlled RH); assay type: physicochemical
Description: Hygroscopicity of salts of invention were measured by placing 20-50 mg of the sample in an uncapped scintillation vial. The vial was stored at ambient temperature in a Pyrex brand desiccator (VWR, International, CT). […] The relative humidity was confirmed using a digital hygrometer pen (VWR International, CT). An empty scintillation vial was also placed in the desiccator as a control. […] Visual observation of phase transition was also noted.

[2] = Glass transition temperature (Tg) by modulated differential scanning calorimetry (mDSC); assay type: physicochemical; conditions: for Tg (° C.) First heating / Tg (° C.) Second heating: mDSC, precipitated salts of Compound 1; for Tg (° C.) First heating: first heating cycle; for Tg (° C.) Second heating: second heating cycle (intrinsic Tg in dry state); for Tg (° C.): spray dried salts (from acetone)
Description: Modulated differential scanning calorimetry (mDSC) was used to characterize salts of the invention. Solid samples were placed in hermetically sealed aluminum pan with a pinhole. Modulation amplitude of ±0.8° C. with a period of 60 sec was applied to the sample heated at 2° C./min under dried nitrogen purge using TA instruments (New Castle, Del., USA) model 1000.
Heat-cool-heat cycles were applied to allow for moisture evaporation during first heating cycle and to erase thermal history of the sample, which allowed for the determination of the intrinsic glass transition temperature (Tg) in dry state.

[3] = 55% RH, room temperature, 24 hours, visual observation
[4] = 75% RH, room temperature, 24 hours, visual observation
[5] = 55% RH, room temperature, 24 hours
[6] = 75% RH, room temperature, 24 hours

Molecule	Phase transition [1, 3]	Phase transition [1, 4]	Tg (° C.) First heating [2] [°C]	Tg (° C.) Second heating [2] [°C]	% weight gain [1, 5] [%]	% weight gain [1, 6] [%]	Phase transition ([1]; spray dried salts, 55% RH)	Phase transition ([1]; spray dried salts, 75% RH)	Weight gain at 75% (%) ([1]; spray dried salts, 75% RH)	Tg (° C.) [2] [°C]	Weight gain at 55% RH RH (%) ([1]; spray dried salts, 55% RH)
O=S(=O)(O)O [sulfate]	Partial	Yes	71	71	–	–	–	–	–	–	–
CC(C)c1nc(CN(C)C(=O)N[C@@H](CCN2CCOCC2)C(=O)N[C@H](CC[C@H](Cc2ccccc2)NC(=O)OCc2cncs2)Cc2ccccc2)cs1.CCS(=O)(=O)O	Yes	Yes	−0.23	37	8.78	16.2	–	–	–	–	–
CC(C)c1nc(CN(C)C(=O)N[C@@H](CCN2CCOCC2)C(=O)N[C@H](CC[C@H](Cc2ccccc2)NC(=O)OCc2cncs2)Cc2ccccc2)cs1.O=C1NS(=O)(=O)c2ccccc21 [saccharinate]	No	Yes	37	56	1.89	4.09	no	yes	4.0	36.4	–
CC(C)c1nc(CN(C)C(=O)N[C@@H](CCN2CCOCC2)C(=O)N[C@H](CC[C@H](Cc2ccccc2)NC(=O)OCc2cncs2)Cc2ccccc2)cs1.CC(O)C(=O)O [lactate]	–	Yes	2	17	–	5.76	–	–	–	–	–
CC(C)c1nc(CN(C)C(=O)NC(CCN2CCOCC2)C(=O)NC(CCC(Cc2ccccc2)NC(=O)OCc2cncs2)Cc2ccccc2)cs1.O=C(O)c1ccc2ccccc2c1O (centres unmarked) [xinafoate]	No	No	49	51	0.29	1.97	no	no	3.3	42	2.6
CC(C)c1nc(CN(C)C(=O)N[C@@H](CCN2CCOCC2)C(=O)N[C@H](CC[C@H](Cc2ccccc2)NC(=O)OCc2cncs2)Cc2ccccc2)cs1.O=C(O)CNC(=O)c1ccccc1 [hippurate]	Partial	Yes	31	44	3.37	5.61	–	–	–	–	–
benzoate	Yes	Yes	14	23	1.99	3.63	–	–	–	–	–
O=C(O)CCC(=O)C(=O)O [ketoglutarate]	Yes	Yes	24	42	3.27	5.23	–	–	–	–	–
tartarate	No	Partial	44	66	3.23	7.6	no	yes	6.3	67	5.8
maleate	Yes	Yes	24	37	4.41	6.67	–	–	–	–	–
CC(C)c1nc(CN(C)C(=O)N[C@@H](CCN2CCOCC2)C(=O)N[C@H](CC[C@H](Cc2ccccc2)NC(=O)OCc2cncs2)Cc2ccccc2)cs1.Cl [hydrochloride]	Partial	Yes	34	59	4.32	6.92	partial	yes	9.4	35	7.8
CC(C)c1nc(CN(C)C(=O)N[C@@H](CCN2CCOCC2)C(=O)N[C@H](CC[C@H](Cc2ccccc2)NC(=O)OCc2cncs2)Cc2ccccc2)cs1 [citrate]	No	Partial	59	60	3.17	6.5	–	–	–	–	–
tosylate	Partial	Yes	32	46	3.11	6.5	–	–	–	–	–
CC(C)c1nc(CN(C)C(=O)N[C@@H](CCN2CCOCC2)C(=O)N[C@H](CC[C@H](Cc2ccccc2)NC(=O)OCc2cncs2)Cc2ccccc2)cs1.O=C(O)CC(=O)O [malonate]	Yes	Yes	14	36	3.43	6.18	–	–	–	–	–
CC(C)c1nc(CN(C)C(=O)N[C@@H](CCN2CCOCC2)C(=O)N[C@H](CC[C@H](Cc2ccccc2)NC(=O)OCc2cncs2)Cc2ccccc2)cs1.O=C(O)C(=O)O.O=C(O)C(=O)O [oxalate]	Partial	Yes	34	46	4.38	9.36	–	–	–	–	–
dichloroacetate	Yes	Yes	–	34	3.36	7.3	–	–	–	–	–
ascorbate	No	Yes	42	60	3.23	7.56	–	–	–	–	–
CC(C)c1nc(CN(C)C(=O)N[C@@H](CCN2CCOCC2)C(=O)N[C@H](CC[C@H](Cc2ccccc2)NC(=O)OCc2cncs2)Cc2ccccc2)cs1.O=C(O)CCC(=O)O [succinate]	Yes	Yes	16	35	3.95	6.09	–	–	–	–	–
fumarate	No	Yes	37	51	2.11	6.02	no	yes	6.0	31	3.2
CC(C)c1nc(CN(C)C(=O)N[C@@H](CCN2CCOCC2)C(=O)N[C@H](CC[C@H](Cc2ccccc2)NC(=O)OCc2cncs2)Cc2ccccc2)cs1.O=P(O)(O)O [phosphate]	No	Partial	66	69	4.52	7.9	no	yes	8.0	92	4.7
CC(C)c1nc(CN(C)C(=O)N[C@@H](CCN2CCOCC2)C(=O)N[C@H](CC[C@H](Cc2ccccc2)NC(=O)OCc2cncs2)Cc2ccccc2)cs1.O=C(O)c1cc(O)ccc1O [gentisate]	No	No	62	62	2.17	5.2	no	partial	5.6	61	3.1
CC(C)c1nc(CN(C)C(=O)N[C@@H](CCN2CCOCC2)C(=O)N[C@H](CC[C@H](Cc2ccccc2)NC(=O)OCc2cncs2)Cc2ccccc2)cs1.CC1(C)C2CCC1(CS(=O)(=O)O)C(=O)C2 [camphorosulfonate]	No	Yes	66	66	2.99	5.9	–	–	–	–	–
